One experiment has as its system superoxide (O−2). In words: Oxidative burst, superoxide production. The experiment is classed as cell-based. The conditions noted are these: for Oxidative burst % Inhibition O−2: 25 μg/Ml.
The test system of a further experiment is ROS (HOCl). The experiment in a line: Oxidative burst, ROS (HOCl) production (zymosan induced). The experiment is classed as cell-based.
The subject of the next experiment is T-cells. The experiment in a line: T-cell proliferation. The experiment is classed as cell-based. An excerpt: T Lymphocytes, the major key detector cells of the adaptive immune responses, differ entirely from those of innate immunity that includes free a radical generation system. However, the effector pathways overlap to a great extent. Therefore, they can play a leading role in the development of autoimmune disease related to oxidative stress.

Another experiment has as its system MDBK kidney cells. The experiment in a line: MTT assay, MDBK kidney cell proliferation. The experiment is classed as cell-based. The conditions noted are these: 48 hours. The method, then: FIG. 5 depicts the effect of myrtocomuloacetalone 1 on MDBK kidney cell proliferation by MTT assay. MDBK Kidney cell line was incubated in the presence of three concentrations 25, 5 and 0.5 μg/mL of test compounds or without addition of compounds (− test control) and in presence of cytotoxic drug cyclohexamide (+ control).
(§1) The effect of myrtocomuloacetalone 1 on cell viability was determined in MDBK, CC1, J774 and 3T3 Fibrobast cells and the IC50 for each line was calculated.
A general note: Tetrazolium dyes change colour on reduction, which living cells bring about.

The next experiment concerns CC1 liver cells. In words: MTT assay, CC1 liver cell proliferation. The conditions noted are these: 48 hours. Type of experiment: cell-based, Wistar rat. As for the experimental part:
FIG. 6 depicts the effect of myrtocomuloacetalone 1 on Wistar rat CC1 liver cell proliferation by MTT assay. CC1 liver cellline was incubated in the presence of three concentrations 25, 5 and 0.5 μg/mL of test compounds or without addition of compounds (−ve control) and in the presence of cytotoxic drug cyclohexamide (+ control).
as §1

The subject of experiment [1] is 3T3 mouse fibroblast cells. In words: MTT assay, 3T3 fibroblast cell proliferation. The experiment is classed as cell-based. The conditions noted are these: 48 hours. The method, then:
FIG. 7 depicts the effect of myrtocomuloacetalone 1 on 3T3 mouse fibrobast cell proliferation by MTT assay. Fibrobast cell line was incubated in the presence of three concentrations (25, 5 and 0.5 μg/mL) of test compounds or without addition of compounds (−ye control) and in presence of cytotoxic drug cyclohexamide (+ control).
as §1

The subject of a further experiment is H2O2. The experiment in a line: Oxidative burst, hydrogen peroxide production. Type of experiment: cell-based.
In experiment [2] the test system is Nitric Oxide release by J774.2 macrophages. The experiment in a line: LPS-induced inflammatory Nitric Oxide release by macrophages (griess reagent). Type of experiment: cell-based, mouse. The conditions noted are these: J774.2, LPS, 48 hours. The method, then: FIG. 2 depicts the effect of myrtocomuloacetalone 1 on inflammatory Nitric Oxide release by macrophages in response to LPS, macrophages. J774.2 cells were incubated in the presence or absence of compound for 48 hours and supernatant was detected for the presence of nitrite by griess reagent. The result was compared with known inhibitor of Nitric Oxide; LNMA (NG Monomethyl L arginine).
During inflammation, the inducible form of nitric oxide synthase gets activated and causes the robust generation of Nitric Oxide that causes excessive vasodilation which results in hypotension and septic shock. In contrast, Nitric Oxide combined with superoxide (ROS generated during phagocytosis) leads to ONOO generation and eventually reduces the bioavailability of basal Nitric Oxide and therefore normal function of neurotransition will be halted. This effect mainly leads to vasoconstriction, hypertension and atherosclerosis. Current studies reveal that the compound is an inhibitor to the inflammatory Nitric Oxide released by the activated macrophages in cell culture supernatant. It is found to be a highly significant inhibitor Nitric Oxide with an IC50 value of <1 μg/mL (see FIG. 2).

Experiment [3] relates to basal Nitric Oxide, U138MG cells. The experiment in a line: Basal level of Nitric Oxide in neuronal cells (griess reagent). The experiment is classed as cell-based. The conditions noted are these: 48 hours. The method, then:
FIG. 1 depicts the effect of myrtocomuloacetalone 1 on basal level of Nitric Oxide neuronal cells. U138MG cells were incubated in presence and absence of compound for 48 hours and supernatant was analyzed for the level of the presence of nitrite by griess reagent.
Under normal physiological conditions, Nitric Oxide is necessary for normal vascular function because of its effect as a neurotransmitter. This kind of Nitric Oxide is called a basal level of Nitric Oxide, which is released by neuronal and endothelial synthases (Hattori, Kasai, and Gross 2004). The test compound […] in the basal level of Nitric Oxide released by the neuronal cell (FIG. 1).

Experiment [4] concerns NF kappa B p65 in J774 cells. The experiment in a line: LPS induced nuclear translocation of p65 subunit of NF kappa B. The experiment is classed as cell-based, mouse. The method, then: FIG. 3 depicts the LPS induced nuclear translocation of p65 subunit of NF kappa B in J774 cells. Effect of myrtocomuloacetalone 1 at concentration 25 μg/mL. Arrows show no transcription factor inside nucleus at 25 μg/mL, whereas 5, 0.5 μg/mL has no effect on nuclear factor translocation as compared to positive control. The cells were examined at 20× magnification under TRITC and DAPI channel using a Nikon TE-2000 epifluorescence microscope. Merging was done using Adobe Photoshop.

The test system of the next experiment is p38. In words: LPS activated transcription factor p38. Type of experiment: cell-based.
Experiment [5] relates to intracellular ROS in J774.2 cells. The experiment in a line: Intracellular oxidative stress, DCFH dye, fluorescent microscopy. The conditions noted are these: PMA stimulant. The experiment is classed as cell-based, mouse. An excerpt: FIG. 4 depicts the intracellular oxidative stress examined by fluorescent microscopy. Mouse macrophage J774.2 cells, treated with phorbol myristate acetate (PMA) alone: positive control or in combination with compound. The cells were examined at 20× magnification under a green channel. Bright field images showing the total number of cells present in the same field were obtained under phase contrast at 20× magnification. Each image is representative of 3 individual experiments.
In order to validate the above mentioned results, we also investigated the effect of compound on intracellular ROS levels by using 2′,7′-dichlorfluorescein (DCFH) dye, which mainly measures the H2O2 released into the intracellular environment. We employed PMA as a stimulant since PMA is known to activate the NADPH oxidase via protein kinase C pathway.

A further experiment concerns J774.2 macrophages. The experiment in a line: MTT assay, J774.2 macrophage cell proliferation. The experiment is classed as cell-based, mouse. The conditions noted are these: 48 hours. As for the experimental part: FIG. 8 depicts the effect of myrtocomuloacetalone 1 on J774.2 mouse macrophage cell proliferation by MIT assay. Macrophage cell line was incubated in the presence of three concentrations (25, 5 and 0.5 μg/mL) of test compounds or without addition of compounds (−ve control).
as §1

From US9701690B2, “Myrtocomuloacetalone 1 as an anti-inflammatory agent” (priority 2014, dated 2017) come the findings set out here.

Values after ≈ are worked out from the molar mass of the structure shown. Where two headings read alike, the source gives them in different places.

As usually defined, the IC50 is the midpoint of a concentration-inhibition curve. Read a low IC50 as higher potency.

As for `c1ccc([I+]c2ccccc2)cc1` [Diphenyliodonium, reference compound], the “Oxidative burst % Inhibition O−2” value in the experiment with superoxide (O−2) was determined as 95%.
Turning to `CC(C)Cc1ccc(C(C)C(=O)O)cc1` (stereo not shown) [Ibuprofen, reference compound], inhibition in the experiment on ROS (HOCl) (oxidative burst) was half-maximal at 11.7 ± 1.8 µg/mL (≈ 56.7 µM) (IC50).
As to `C[C@]12C=CC(=O)C=C1CC[C@@H]1[C@@H]2[C@@H](O)C[C@@]2(C)[C@H]1CC[C@]2(O)C(=O)CO` [Prednisolone, reference compound], the half-maximal inhibitory concentration (IC50) in the experiment on T-cells (T-cell) is less than 0.625 µg/mL.
As for `C[C@@H]1C[C@@H]([C@H](O)CC2CC(=O)NC(=O)C2)C(=O)[C@@H](C)C1` [cycoxehamide, reference compound], the “Cell viability IC50, MDBK kidney cells” value in the experiment on MDBK kidney cells was found to be 1.2 ± 0.4 µg/mL. Besides, the “Cell viability IC50, CC1 liver cells” value in the experiment with CC1 liver cells turned out to be 0.02 ± 0.001 µg/mL. In addition, in [1], the “Cell viability IC50, 3T3 mouse fibroblasts” value is 0.13 µg/mL.
As for “myrtocomuloacetalone 1 [Myrtocomuloacetalone (1)]”, the “Effect on HOCl production” value in the experiment with ROS (HOCl) (oxidative burst) is “no effect”. Further, in the experiment with ROS (HOCl) (oxidative burst), the “ROS (HOCl) (IC50)” value is more than 100 µg/mL. Besides, the “Zymosan induced ROS production of mainly HOCl” value with ROS (HOCl) (zymosan induced) is on record as “not”. Further, the “Oxidative burst % Inhibition O−2” value with superoxide (O−2) was 42.5%. For the same compound, the “Effect on superoxide production” value in the experiment on superoxide (O−2) (oxidative burst) is “profound effect”. Besides, in the experiment with H2O2 (25 μg/Ml), the “Oxidative burst % Inhibition H2O2” value amounted to 53%. In addition, the “Effect on hydrogen peroxide production” value in the experiment on H2O2 (oxidative burst) is listed as “profound effect”. Further, the “T-Cell proliferation (IC50)” value with T-cells and in the experiment with T-cells (listed as myrtocomuloacetalone 1) was less than 0.5 µg/mL throughout. Moreover, the “Inhibition of inflammatory Nitric Oxide released by activated macrophages, IC50” value in [2] was less than 1 µg/mL. Also, in [3], the “Effect on basal level of Nitric Oxide released by neuronal cell” value is given as “does change”. Besides, the “Nuclear translocation of NF κB” value is given as “completely inhibits” in experiment [4] (25 μg/mL) and “no effect” in [4] (5, 0.5 μg/mL). Moreover, the “Effect on transcription factor p38 activated by LPS” value in the experiment on p38 is given as “remain unaffected”. In addition, in [5], the “PMA induced intracellular ROS generation” value is “inhibitory effects”. In addition, the “Cell viability IC50, MDBK kidney cells” value in the experiment on MDBK kidney cells came to 4.5 ± 1.1 µg/mL. Besides, in the experiment on CC1 liver cells, the “Cell viability IC50, CC1 liver cells” value is 4.6 ± 0.7 µg/mL. Also, the “Cell viability IC50, 3T3 mouse fibroblasts” value in experiment [1] stood at 6.53 ± 1.2 µg/mL. Also, in the experiment with J774.2 macrophages, the “Cell viability IC50, J774.2 macrophages” value was 5 ± 0.8 µg/mL.
